Earlier results in PMC8198792, “Prediction of Anticancer Peptides with High Efficacy and Low Toxicity by Hybrid Model Based on 3D Structure of Peptides” (International Journal of Molecular Sciences, 2021).
Read-outs that look alike come from different tables or passages of the source.

Columns and labels:
[1] = test system: many types of cells, including non-cancer cells; details: cited from earlier work; for Activity: toxic peptides dataset TD2, class label 1 (toxic, positive set) or 0 (non-toxic AMP, negative set), ref SATPdb
[2] = test system: erythrocytes; details: cited from earlier work
Excerpt: Supplement ijms-22-05630-s001.zip/Hemloytic Peptides(seguence).xlsx, sheet "HD1" | column: Activity || Supplement ijms-22-05630-s001.zip/Hemloytic Peptides(seguence).xlsx, sheet "HD2" | column: Activity || Supplement ijms-22-05630-s001.zip/Hemloytic Peptides(seguence).xlsx, sheet "HD3" | column: Activity

[3] = test system: cancer cell lines; parameters: method as in 6 sources, ref CancerPPD [45] and SATPdb ||| ref CancerPPD/SATPdb ||| ref CancerPPD, SATPdb, Swissprot (PDB) ||| ref CancerPPD/SATPdb/Swissprot(PDB) ||| ref CancerPPD / SATPdb ||| ...; details: cited from earlier work
Excerpt: Supplement ijms-22-05630-s001.zip/ACPs(seguence).xlsx, sheet "D1" | column: Activity || Supplement ijms-22-05630-s001.zip/ACPs(seguence).xlsx, sheet "D2" | column: Activity || Supplement ijms-22-05630-s001.zip/ACPs(seguence).xlsx, sheet "D3" | column: Activity || (+ 2 further places)

[4] = ACPs dataset D3 (supplement sheet "D3"), 1 = ACP, 0 = non-ACP, ref CancerPPD [45] and SATPdb
[5] = ACPs dataset D4 (sheet "D4"), label 1 = ACP, 0 = non-ACP, ref CancerPPD / SATPdb
[6] = ACPs dataset D5, sheet "D5", label 1 = ACP, 0 = non-ACP, ref CancerPPD [45] and SATPdb
[7] = ACPs dataset D3 (sheet "D3"), label 1 = ACP, 0 = non-ACP, ref CancerPPD/SATPdb
[8] = ACPs dataset D1, 1 = ACP (positive), 0 = non-ACP (negative), label taken from databases, ref CancerPPD [45] and SATPdb
[9] = ACPs dataset D4 (sheet "D4"), label 1 = ACP (CancerPPD ID), 0 = non-ACP (non-anticancer AMP, SATPdb ID), ref CancerPPD [45] and SATPdb

Substance: IDWKKLLDAAKQIL [satpdb24876]
- Activity [1]: 1
- Activity ([2]; Hemolytic peptides dataset HD2, label 1 = hemolytic, 0 = non-hemolytic, ref Hemolytik/SATPdb): 0
- Activity ([2]; hemolytic peptides dataset HD3, 1 = hemolytic (positive set), 0 = non-hemolytic (negative set), labels taken from databases, ref Hemolytik/SATPdb): 0

Substance: KWKVFKKIEKMGRNIRNGIVKAGPAIAVLGEAKAILS [satpdb11163]
- Activity [1]: 0
- Activity [3, 4]: 0
- Activity [3, 5]: 0
- Activity [3, 6]: 0

Substance: ILPILGNLLNGLL [satpdb12015]
- Activity [1]: 1
- Activity [3, 7]: 0
- Activity [3, 5]: 0
- Activity [3, 6]: 0

Substance: GIGGALLSVGKLALKGLANVLADKFAN [satpdb14012]
- Activity [1]: 1
- Activity [3, 7]: 0
- Activity [3, 5]: 0
- Activity [3, 6]: 0

Substance: AVLDILKDVGKGLLSHFMEKV [satpdb13844]
- Activity [1]: 0
- Activity [3, 7]: 0
- Activity [3, 5]: 0
- Activity [3, 6]: 0

Substance: ILGPVLGLVGNALGGLIKKL [satpdb12428]
- Activity [1]: 1
- Activity [3, 7]: 0
- Activity [3, 5]: 0
- Activity [3, 6]: 0

Substance: GWRLLLKKAEVKTVGKLALKHYL [satpdb14772]
- Activity [1]: 0
- Activity [3, 7]: 0
- Activity [3, 5]: 0
- Activity [3, 6]: 0

Substance: KFGKIVGKVLKQLKKVSAVAKVAMKKG [satpdb11425]
- Activity [1]: 1
- Activity [3, 4]: 0
- Activity [3, 5]: 0
- Activity [3, 6]: 0

Substance: GFGSLLGKALRLGANVL [satpdb12093]
- Activity [1]: 0
- Activity [3, 7]: 0
- Activity [3, 5]: 0
- Activity [3, 6]: 0

Substance: AMWKDVLKKIGTVALHAGKAALGAVADTISQ [satpdb14434]
- Activity [1]: 0
- Activity [3, 7]: 0
- Activity [3, 5]: 0
- Activity [3, 6]: 0

Substance: RADTQTYQPYNKDWIKEKIYVLLRRQAQQAGK [satpdb14189]
- Activity [1]: 0
- Activity [3, 7]: 0
- Activity [3, 5]: 0
- Activity [3, 6]: 0

Substance: ACNFQSCWATCQAQHSIYFRRAFCDRSQCKCVFVRG [satpdb14312]
- Activity [1]: 0
- Activity [3, 7]: 0
- Activity [3, 5]: 0
- Activity [3, 6]: 0

Substance: FIGAILPAIAGLVGGLINR [satpdb12061]
- Activity [1]: 1
- Activity [3, 7]: 0
- Activity [3, 5]: 0
- Activity [3, 6]: 0

Substance: GLLDALSGILGL [satpdb12939]
- Activity [1]: 0
- Activity [3, 7]: 0
- Activity [3, 5]: 0
- Activity [3, 6]: 0

Substance: FLPLVGKILSGLI [satpdb11230]
- Activity [1]: 0
- Activity [3, 4]: 0
- Activity [3, 5]: 0
- Activity [3, 6]: 0

Substance: KWKSFIKKLTSAAKKVVTTAKPLISS [satpdb10912]
- Activity [1]: 0
- Activity [3, 4]: 0
- Activity [3, 5]: 0
- Activity [3, 6]: 0

Substance: VIPFVASVAAEMMQHVYCAASKKC [satpdb10043, toxic peptide, datasets TD1 and TD3]
- Activity (dataset TD1, toxic 1 / non-toxic 0) ([1]; natural toxic peptide dataset TD1, label collected from database, ref SATPdb [34]): 1
- Activity [3, 8]: 0
- Activity [3, 9]: 0

Substance: GFLGSLLKTGLKVGSNLL [satpdb10293]
- Activity [1]: 1
- Activity [3, 8]: 0
- Activity [3, 9]: 0

Substance: RGGRLCYCRRRFCICV [satpdb14720]
- Activity [1]: 0
- Activity [3, 7]: 0
- Activity [3, 5]: 0
- Activity [3, 6]: 0

Substance: GVVTDLLKTAGKLLGNLFGSLSG [satpdb14110]
- Activity [1]: 1
- Activity [3, 7]: 0
- Activity [3, 5]: 0
- Activity [3, 6]: 0

Substance: VOLFPWWNQY [satpdb13995]
- Activity [1]: 0
- Activity [3, 7]: 0
- Activity [3, 5]: 0
- Activity [3, 6]: 0

Substance: ILGPVIKTIGGVIGGLLKNL [satpdb10308]
- Activity [1]: 1
- Activity [3, 4]: 0
- Activity [3, 5]: 0
- Activity [3, 6]: 0

Substance: LSPNLLKSLL [satpdb13883]
- Activity [1]: 0
- Activity [3, 7]: 0
- Activity [3, 5]: 0
- Activity [3, 6]: 0

Substance: RGGRLCYCRPRFCVCVGR [satpdb12800]
- Activity [1]: 0
- Activity [3, 7]: 0
- Activity [3, 5]: 0
- Activity [3, 6]: 0

Substance: AIGSILGALAKGLPTLISWIKNR [satpdb14614]
- Activity [1]: 1
- Activity [3, 7]: 0
- Activity [3, 5]: 0
- Activity [3, 6]: 0

Substance: GFGSVLGKALKFGANLL [satpdb10971]
- Activity [1]: 0
- Activity [3, 4]: 0
- Activity [3, 5]: 0
- Activity [3, 6]: 0

Substance: GLLGTLGNLLNGLGL [satpdb12279]
- Activity [1]: 0
- Activity [3, 7]: 0
- Activity [3, 5]: 0
- Activity [3, 6]: 0

Substance: IWSAIWSGIKGLL [satpdb12218]
- Activity [1]: 0
- Activity [3, 7]: 0
- Activity [3, 5]: 0
- Activity [3, 6]: 0

Substance: FLGALWNVAKSVF [satpdb13946]
- Activity [1]: 0
- Activity [3, 7]: 0
- Activity [3, 5]: 0
- Activity [3, 6]: 0

Substance: ILPFLAGLFSKIL [satpdb10916]
- Activity [1]: 0
- Activity [3, 4]: 0
- Activity [3, 5]: 0
- Activity [3, 6]: 0

Substance: SILPTIVSFLTKFL [satpdb10195]
- Activity [1]: 0
- Activity [3, 4]: 0
- Activity [3, 5]: 0
- Activity [3, 6]: 0

Substance: FLSLIPHAINAVSALANHG [satpdb14661]
- Activity [1]: 0
- Activity [3, 7]: 0
- Activity [3, 5]: 0
- Activity [3, 6]: 0

Substance: KLGFENFLVKALKTVMHVPTSPLL [satpdb10107]
- Activity [1]: 1
- Activity [3, 4]: 0
- Activity [3, 5]: 0
- Activity [3, 6]: 0

Substance: ILPLVGNLLNDLL [satpdb10023]
- Activity [1]: 0
- Activity [3, 4]: 0
- Activity [3, 5]: 0
- Activity [3, 6]: 0

Substance: GLADFLNKAVGKVVDFVKS [satpdb10833]
- Activity [1]: 0
- Activity [3, 4]: 0
- Activity [3, 5]: 0
- Activity [3, 6]: 0

Substance: HFLGTLVNLAKKIL [satpdb13929]
- Activity [1]: 1
- Activity [3, 7]: 0
- Activity [3, 5]: 0
- Activity [3, 6]: 0

Substance: VKLfPVKLfP [satpdb12197]
- Activity [1]: 1
- Activity [3, 7]: 0
- Activity [3, 5]: 0
- Activity [3, 6]: 0

Substance: FLWGLIPGAISAVTSLIKK [satpdb12159]
- Activity [1]: 0
- Activity [3, 7]: 0
- Activity [3, 5]: 0
- Activity [3, 6]: 0

Substance: GMASKAGSVLGKVAKVALKAAL [satpdb13618]
- Activity [1]: 0
- Activity [3, 7]: 0
- Activity [3, 5]: 0
- Activity [3, 6]: 0

Substance: GMFTNMLKGIGKLAGQAALGAVKTLA [satpdb11616]
- Activity [1]: 0
- Activity [3, 4]: 0
- Activity [3, 5]: 0
- Activity [3, 6]: 0

Substance: GLWSTIKQKGKEAAIAAAKAAGQAVLNSASEAL [satpdb11971]
- Activity [1]: 0
- Activity [3, 7]: 0
- Activity [3, 5]: 0
- Activity [3, 6]: 0

Substance: ALALLOHALHOLALLAOHLAHOLALA [satpdb11016]
- Activity [1]: 0
- Activity [3, 4]: 0

Substance: FKIKPGKVLDKFGKIVGKVLKQLKKVS [satpdb13509]
- Activity [1]: 1
- Activity [3, 7]: 0
- Activity [3, 5]: 0
- Activity [3, 6]: 0

Substance: NLLGSLLKTGLKVGSNLL [satpdb11204]
- Activity [1]: 1
- Activity [3, 4]: 0
- Activity [3, 5]: 0
- Activity [3, 6]: 0

Substance: GKVLDKFGKIVGKVLKQLKKVSAVAKV [satpdb11239]
- Activity [1]: 1
- Activity [3, 4]: 0
- Activity [3, 5]: 0
- Activity [3, 6]: 0

Substance: GLLGPLLKIAAKVGSNLL [satpdb10126]
- Activity [1]: 1
- Activity [2]: 1

Substance: GILDVAKTLVGKLRNVLGI [satpdb10523]
- Activity [1]: 0
- Activity [3, 4]: 0
- Activity [3, 5]: 0
- Activity [3, 6]: 0

Substance: FLPIAGKLLSGLSGLL [satpdb12964]
- Activity [1]: 0
- Activity [3, 7]: 0
- Activity [3, 5]: 0
- Activity [3, 6]: 0

Substance: GLWSNIKTAGKEAAKAALKAAGKAALGAVTDAV [satpdb12078]
- Activity [1]: 0
- Activity [3, 7]: 0
- Activity [3, 5]: 0
- Activity [3, 6]: 0

Substance: GLWSKIKDVAAAAGKAALGAVNEAL [satpdb12483]
- Activity [1]: 0
- Activity [3, 7]: 0
- Activity [3, 5]: 0
- Activity [3, 6]: 0

Substance: FLPFLKSILGKIL [satpdb13847]
- Activity [1]: 0
- Activity [3, 7]: 0
- Activity [3, 5]: 0
- Activity [3, 6]: 0

Substance: GFRDVLKGAAKAFVKTVAGHIAN [satpdb12067]
- Activity [1]: 0
- Activity [3, 7]: 0
- Activity [3, 5]: 0
- Activity [3, 6]: 0

Substance: FLPFLAKILTGVL [satpdb14646]
- Activity [1]: 0
- Activity [3, 7]: 0
- Activity [3, 5]: 0
- Activity [3, 6]: 0

Substance: VOLFPWFNQY [satpdb12517]
- Activity [1]: 0
- Activity [3, 7]: 0
- Activity [3, 5]: 0
- Activity [3, 6]: 0
